Source: US20250304620A1, “ANTIMICROBIAL PEPTIDE AND APPLICATION THEREOF” (priority 2023, published 2025)
Values after ≈ are worked out from the molar mass of the structure shown. Marks after values point to notes of the source that are not given here. Non-standard residues stand in square brackets, D forms with d. Residues, ends and D or L forms follow the SMILES beside them. dPhe(4-Me) = Cc1ccc(C[C@@H](N)C(=O)O)cc1; d2Nal = N[C@H](Cc1ccc2ccccc2c1)C(=O)O; dNle = CCCC[C@@H](N)C(=O)O; dNva = CCC[C@@H](N)C(=O)O

Tests used:
[1] = system: Methicillin-resistant Staphylococcus aureus (MRSA); type: cell-based; settings: Methicillin-resistant
Procedure, shortened: (§1)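 CLSI twofold serial microdilution; MIC read per drug-resistant clinical strain; n = 5 parallel replicates.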

[2] = system: carbapenem-resistant Escherichia coli (CREC); type: cell-based; settings: carbapenem-resistant (CREC)
Procedure, shortened: as §1

[3] = system: carbapenem-resistant Klebsiella pneumoniae (CRKP); type: cell-based; settings: carbapenem-resistant (CRKP)
Procedure, shortened: as §1

[4] = system: carbapenem-resistant Pseudomonas aeruginosa (CRPA); type: cell-based; settings: carbapenem-resistant (CRPA)
Procedure, shortened: as §1

[5] = system: vancomycin-resistant Enterococcus (VRE); type: cell-based
Procedure, shortened: as §1

[6] = system: Staphylococcus aureus (NRS 384); settings: NRS 384, 3 h
Protocol: Trypsin (250 U/mg, pH=8.0) and AMPs (LV-1 to LV-30) were mixed in a ratio of 1:10 (w/w) and added to a reaction buffer (0.2 M sodium phosphate, 1 mM CaCl2), pH 7.5), and then incubated at 37° C. for 3 h.

[7] = system: Staphylococcus aureus ATCC 25923; type: cell-based
Procedure, shortened: (§2)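 Susceptibility testing used the CLSI-standard microdilution method with twofold serial dilutions of the antimicrobial peptides to give MIC values, replicated 5 times in parallel.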

[8] = system: Klebsiella pneumoniae ATCC 700603; type: cell-based
Procedure, shortened: as §2

[9] = system: Corynebacterium ATCC 7715; type: cell-based
Procedure, shortened: as §2

[10] = system: Serratia marcescens ATCC 29021; type: cell-based
Procedure, shortened: as §2

[11] = system: Escherichia coli ATCC 25922; type: cell-based
Procedure, shortened: as §2

[12] = system: Candida albicans ATCC MYA-2876; type: cell-based
Procedure, shortened: as §2

Candida utilis ATCC 9950 = type: cell-based
Procedure, shortened: as §2

[13] = system: Trichophyton ATCC MYA-4438; type: cell-based
Procedure, shortened: as §2

Enterococcus ATCC 29212 = type: cell-based
Procedure, shortened: as §2

[14] = system: Bacillus subtilis ATCC 6633; type: cell-based
Procedure, shortened: as §2

Candida krusei ATCC 6258 = type: cell-based
Procedure, shortened: as §2

[15] = system: Pseudomonas aeruginosa ATCC 27853; type: cell-based
Procedure, shortened: as §2

[16] = system: Candida glabrata ATCC 15126; type: cell-based
Procedure, shortened: as §2

[17] = system: Candida tropicalis ATCC 750; type: cell-based
Procedure, shortened: as §2

[18] = system: Salmonella typhimurium ATCC 14028; type: cell-based
Procedure, shortened: as §2

[19] = system: Pseudomonas aeruginosa ATCC 27853; experiment: Injectable formulations on mice infected with peritonitis; type: in vivo, ICR mice; settings: twice a day for 3 days; for Number of mice that died on each day after infection: day 1 / Number of mice that died on each day after infection: day 2 / Number of mice that died on each day after infection: day 3 / Number of mice that died on each day after infection: day 4 / Number of mice that died on each day after infection: day 5 / Average survival times (Days): n = 10; for Average survival times (Days): observed for 14 d
Procedure, shortened: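 Survival readout: deaths and survival time tracked for 14 d. Treatment was tail-vein injection by body weight, twice a day for 3 consecutive days, starting right after intraperitoneal challenge with 0.2 mL of 1×10^9 CFU/mL P. aeruginosa ATCC 27853 in male and female ICR mice.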

[20] = Serum stability assay (residual level by RP-HPLC); settings: human

## CC(=O)N[C@H](CCCNC(=N)N)C(=O)N[C@H](CCCCN)C(=O)N[C@H](CC(C)C)C(=O)N[C@H](CC(C)C)C(=O)N[C@H](Cc1ccc(C)cc1)C(=O)N[C@H](CCCCN)C(=O)N[C@H](CC(C)C)C(=O)N[C@H](CCCCN)C(=O)N[C@H](Cc1ccc(C)cc1)C(=O)N[C@H](CCCCN)C(=O)N[C@H](CCCNC(=N)N)C(N)=O [LV-11] (Ac-[dR][dK][dL][dL][dPhe(4-Me)][dK][dL][dK][dPhe(4-Me)][dK][dR]-NH2)
[1]
  MIC MRSA: 2 µg/mL (≈ 1.29 µM)
[2]
  MIC CREC: 2 µg/mL (≈ 1.29 µM)
[3]
  MIC CRKP: 8 µg/mL (≈ 5.17 µM)
[4]
  MIC CRPA: 4 µg/mL (≈ 2.59 µM)
[5]
  MIC VRE: 4 µg/mL (≈ 2.59 µM)
[6]
  Trypsin MIC: 1 µg/mL
[7]
  MIC Staphylococcus aureus ATCC 25923: 1 µg/mL (≈ 0.647 µM)
[8]
  MIC Klebsiella pneumoniae ATCC 700603: 4 µg/mL (≈ 2.59 µM)
[9]
  MIC Corynebacterium ATCC 7715: 8 µg/mL (≈ 5.17 µM)
[10]
  MIC Serratia marcescens ATCC 29021: 8 µg/mL (≈ 5.17 µM)
[11]
  MIC Escherichia coli ATCC 25922: 2 µg/mL (≈ 1.29 µM)
[12]
  MIC Candida albicans ATCC MYA-2876: 8 µg/mL (≈ 5.17 µM)
Candida utilis ATCC 9950
  MIC Candida utilis ATCC 9950: 8 µg/mL (≈ 5.17 µM)
[13]
  MIC Trichophyton ATCC MYA-4438: 8 µg/mL (≈ 5.17 µM)
Enterococcus ATCC 29212
  MIC Enterococcus ATCC 29212: 2 µg/mL (≈ 1.29 µM)
[14]
  MIC Bacillus subtilis ATCC 6633: 4 µg/mL (≈ 2.59 µM)
Candida krusei ATCC 6258
  MIC Candida krusei ATCC 6258: 16 µg/mL (≈ 10.3 µM)
[15]
  MIC Pseudomonas aeruginosa ATCC 27853: 2 µg/mL (≈ 1.29 µM)
[16]
  MIC Candida glabrata ATCC 15126: 16 µg/mL (≈ 10.3 µM)
[17]
  MIC Candida tropicalis ATCC 750: 8 µg/mL (≈ 5.17 µM)
[18]
  MIC Salmonella typhimurium ATCC 14028: 2 µg/mL (≈ 1.29 µM)
[19]; 1 mg/kg via tail vein
  Number of mice that died on each day after infection: day 1: 0 Mouse
  Number of mice that died on each day after infection: day 2: 1 Mouse
  Number of mice that died on each day after infection: day 3: 1 Mouse
  Number of mice that died on each day after infection: day 4: 0 Mouse
  Number of mice that died on each day after infection: day 5: 2 Mouse
  Average survival times (Days): 9.9**** Days
[20]
  remaining at 12 h, 0.91 mg/mL: 98.3%

## CCCC[C@@H](NC(=O)[C@@H](CCCCN)NC(=O)[C@@H](CCCNC(=N)N)NC(C)=O)C(=O)N[C@H](CCCC)C(=O)N[C@H](Cc1ccc2ccccc2c1)C(=O)N[C@H](CCCNC(=N)N)C(=O)N[C@H](CCCC)C(=O)N[C@H](CCCCN)C(=O)N[C@H](Cc1ccc2ccccc2c1)C(=O)N[C@H](CCCNC(=N)N)C(=O)N[C@H](CCCCN)C(N)=O [LV-12] (Ac-[dR][dK][dNle][dNle][d2Nal][dR][dNle][dK][d2Nal][dR][dK]-NH2)
[1]
  MIC MRSA: 8 µg/mL (≈ 4.86 µM)
[2]
  MIC CREC: 8 µg/mL (≈ 4.86 µM)
[3]
  MIC CRKP: 4 µg/mL (≈ 2.43 µM)
[4]
  MIC CRPA: 2 µg/mL (≈ 1.21 µM)
[5]
  MIC VRE: 4 µg/mL (≈ 2.43 µM)
[6]
  Trypsin MIC: 1 µg/mL
[7]
  MIC Staphylococcus aureus ATCC 25923: 1 µg/mL (≈ 0.607 µM)
[8]
  MIC Klebsiella pneumoniae ATCC 700603: 2 µg/mL (≈ 1.21 µM)
[9]
  MIC Corynebacterium ATCC 7715: 2 µg/mL (≈ 1.21 µM)
[10]
  MIC Serratia marcescens ATCC 29021: 2 µg/mL (≈ 1.21 µM)
[11]
  MIC Escherichia coli ATCC 25922: 1 µg/mL (≈ 0.607 µM)
[12]
  MIC Candida albicans ATCC MYA-2876: 8 µg/mL (≈ 4.86 µM)
Candida utilis ATCC 9950
  MIC Candida utilis ATCC 9950: 16 µg/mL (≈ 9.72 µM)
[13]
  MIC Trichophyton ATCC MYA-4438: 16 µg/mL (≈ 9.72 µM)
Enterococcus ATCC 29212
  MIC Enterococcus ATCC 29212: 4 µg/mL (≈ 2.43 µM)
[14]
  MIC Bacillus subtilis ATCC 6633: 8 µg/mL (≈ 4.86 µM)
Candida krusei ATCC 6258
  MIC Candida krusei ATCC 6258: 4 µg/mL (≈ 2.43 µM)
[15]
  MIC Pseudomonas aeruginosa ATCC 27853: 1 µg/mL (≈ 0.607 µM)
[16]
  MIC Candida glabrata ATCC 15126: 4 µg/mL (≈ 2.43 µM)
[17]
  MIC Candida tropicalis ATCC 750: 8 µg/mL (≈ 4.86 µM)
[18]
  MIC Salmonella typhimurium ATCC 14028: 4 µg/mL (≈ 2.43 µM)
[19]; 0.2 mg/kg via tail vein
  Number of mice that died on each day after infection: day 1: 2 Mouse
  Number of mice that died on each day after infection: day 2: 1 Mouse
  Number of mice that died on each day after infection: day 3: 0 Mouse
  Number of mice that died on each day after infection: day 4: 2 Mouse
  Number of mice that died on each day after infection: day 5: 1 Mouse
  Average survival times (Days): 7.3** Days
[19]; 1 mg/kg via tail vein
  Number of mice that died on each day after infection: day 1: 0 Mouse
  Number of mice that died on each day after infection: day 2: 0 Mouse
  Number of mice that died on each day after infection: day 3: 2 Mouse
  Number of mice that died on each day after infection: day 4: 0 Mouse
  Number of mice that died on each day after infection: day 5: 1 Mouse
  Average survival times (Days): 10.9**** Days
[19]; 5 mg/kg via tail vein
  Number of mice that died on each day after infection: day 1: 0 Mouse
  Number of mice that died on each day after infection: day 2: 1 Mouse
  Number of mice that died on each day after infection: day 3: 2 Mouse
  Number of mice that died on each day after infection: day 4: 0 Mouse
  Number of mice that died on each day after infection: day 5: 1 Mouse
  Average survival times (Days): 9.7*** Days
[19]; tail vein, observed 14 d
  survival time of mice infected with Pseudomonas aeruginosa: superior to those of the Levofloxacin group
[20]
  remaining at 12 h, 0.91 mg/mL: 97.5%

## CCC[C@@H](NC(=O)[C@@H](CCCCN)NC(=O)[C@@H](CCCNC(=N)N)NC(C)=O)C(=O)N[C@H](CCC)C(=O)N[C@H](Cc1ccc2ccccc2c1)C(=O)N[C@H](CCCNC(=N)N)C(=O)N[C@H](CCC)C(=O)N[C@H](CCCCN)C(=O)N[C@H](Cc1ccc2ccccc2c1)C(=O)N[C@H](CCCNC(=N)N)C(=O)N[C@H](CCCCN)C(N)=O [LV-13] (Ac-[dR][dK][dNva][dNva][d2Nal][dR][dNva][dK][d2Nal][dR][dK]-NH2)
[1]
  MIC MRSA: 2 µg/mL (≈ 1.25 µM)
[2]
  MIC CREC: 4 µg/mL (≈ 2.49 µM)
[3]
  MIC CRKP: 2 µg/mL (≈ 1.25 µM)
[4]
  MIC CRPA: 2 µg/mL (≈ 1.25 µM)
[5]
  MIC VRE: 4 µg/mL (≈ 2.49 µM)
[6]
  Trypsin MIC: 1 µg/mL
[7]
  MIC Staphylococcus aureus ATCC 25923: 2 µg/mL (≈ 1.25 µM)
[8]
  MIC Klebsiella pneumoniae ATCC 700603: 4 µg/mL (≈ 2.49 µM)
[9]
  MIC Corynebacterium ATCC 7715: 4 µg/mL (≈ 2.49 µM)
[10]
  MIC Serratia marcescens ATCC 29021: 4 µg/mL (≈ 2.49 µM)
[11]
  MIC Escherichia coli ATCC 25922: 2 µg/mL (≈ 1.25 µM)
[12]
  MIC Candida albicans ATCC MYA-2876: 16 µg/mL (≈ 9.97 µM)
Candida utilis ATCC 9950
  MIC Candida utilis ATCC 9950: 8 µg/mL (≈ 4.99 µM)
[13]
  MIC Trichophyton ATCC MYA-4438: 4 µg/mL (≈ 2.49 µM)
Enterococcus ATCC 29212
  MIC Enterococcus ATCC 29212: 8 µg/mL (≈ 4.99 µM)
[14]
  MIC Bacillus subtilis ATCC 6633: 4 µg/mL (≈ 2.49 µM)
Candida krusei ATCC 6258
  MIC Candida krusei ATCC 6258: 4 µg/mL (≈ 2.49 µM)
[15]
  MIC Pseudomonas aeruginosa ATCC 27853: 4 µg/mL (≈ 2.49 µM)
[16]
  MIC Candida glabrata ATCC 15126: 8 µg/mL (≈ 4.99 µM)
[17]
  MIC Candida tropicalis ATCC 750: 4 µg/mL (≈ 2.49 µM)
[18]
  MIC Salmonella typhimurium ATCC 14028: 2 µg/mL (≈ 1.25 µM)
[19]; 1 mg/kg via tail vein
  Number of mice that died on each day after infection: day 1: 3 Mouse
  Number of mice that died on each day after infection: day 2: 1 Mouse
  Number of mice that died on each day after infection: day 3: 0 Mouse
  Number of mice that died on each day after infection: day 4: 1 Mouse
  Number of mice that died on each day after infection: day 5: 0 Mouse
  Average survival times (Days): 7.9** Days
[20]
  remaining at 12 h, 0.91 mg/mL: 98.5%
